The results in this text go back to patent US11337971B2, “Dopamine D3 receptor selective antagonists/partial agonists and uses thereof” (THE UNITED STATES OF AMERICA, AS REPRESENTED BY THE …, priority 2018, dated 2022).

The target in one assay is human D2R (Homo sapiens (Human), UniProt P14416). The assay can be described thus: Radioligand competition binding, [3H]N-methylspiperone, HEK293 membranes expressing human D2R. Conditions: read-out: D2R Ki ± SEM. How it is done: (§1) Binding at dopamine D2-like receptors was determined using previously described methods. […] Upon reaching 80-90% confluence, cells were harvested using pre-mixed Earle's Balanced Salt Solution (EBSS) with […] EDTA (Life Technologies) and centrifuged at 3000 rpm for 10 min at 21° C. The supernatant was removed and the pellet was resuspended in 10 mL hypotonic lysis buffer (5 mM MgCl2.6H2O, 5 mM Tris, pH 7.4 at 4° C.) and centrifuged at 20,000 rpm for 30 min at 4° C. The pellet was then resuspended in fresh EBSS buffer made from 8.7 g/L Earle's Balanced Salts without phenol red (US Biological, Salem, Mass.), 2.2 g/L sodium bicarbonate, pH to 7.4. A Bradford protein assay (Bio-Rad, Hercules, Calif.) was used to determine the protein concentration and membranes were diluted to 500 μg/mL and stored in a −80° C. freezer for later use.
human D2R, sequence (P14416 whole entry): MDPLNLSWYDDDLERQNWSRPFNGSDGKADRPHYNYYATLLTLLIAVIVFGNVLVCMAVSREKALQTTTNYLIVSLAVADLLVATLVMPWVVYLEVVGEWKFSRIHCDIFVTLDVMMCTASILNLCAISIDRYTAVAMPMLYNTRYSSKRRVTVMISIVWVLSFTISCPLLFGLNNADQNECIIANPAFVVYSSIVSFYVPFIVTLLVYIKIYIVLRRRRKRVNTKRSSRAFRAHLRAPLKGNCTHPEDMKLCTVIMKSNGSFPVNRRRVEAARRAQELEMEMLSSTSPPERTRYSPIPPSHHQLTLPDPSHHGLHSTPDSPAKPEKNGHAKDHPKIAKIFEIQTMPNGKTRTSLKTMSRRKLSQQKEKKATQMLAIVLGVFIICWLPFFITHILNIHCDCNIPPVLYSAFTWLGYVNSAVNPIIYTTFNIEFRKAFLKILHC
(§2) Radioligand competition binding experiments were conducted using thawed membranes. Test compounds were freshly dissolved in 30% DMSO and 70% H2O to a stock concentration of 100 μM. To assist the solubilization of free-base compounds, 10 μl of glacial acetic acid was added along with the DMSO. Each test compound was then diluted into 13 half-log serial dilutions using 30% DMSO vehicle; final test concentrations ranged from 10 μM to 10 pM. Previously frozen membranes were diluted in fresh EBSS to a 100 μg/mL (for hD2R or hD3R) or 200 μg/mL (hD4R) stock for binding. […] buffer with 0.2 mM sodium metabisulfite, 50 μl of diluted test compound, 100 μl of membranes (10 μg total protein for hD2R or hD3R, 20 μg total protein for hD4R), and 50 μl of [^3H]N-methylspiperone (0.4 nM final concentration; Perkin Elmer). Nonspecific binding was determined using 10 μM butaclamol (Sigma-Aldrich, St. Louis, Mo.) and total binding was determined with 30% DMSO vehicle. All compound dilutions were tested in triplicate and the reaction incubated for one hour at room temperature. The reaction was terminated by filtration through Whatman GF/B filters, presoaked for one hour in 0.5% polyethylenimine, using a Brandel R48 filtering manifold (Brandel Instruments, Gaithersburg, Md.). The filters were washed 3 times with 3 mL of ice cold EBSS buffer and transferred to scintillation vials. […] IC50 values for each compound were determined from dose-response curves and Ki values were calculated using the Cheng-Prusoff equation; these analyses were performed using GraphPad Prism version 5.00 for Windows (GraphPad Software, San Diego, Calif.). Reported Ki values were determined from least three independent experiments.
(§3) The binding affinities of the compounds were evaluated by performing competition binding studies with [^3H]N-methylspiperone using membranes prepared from HEK293 cells expressing either the human D2R or D3R.
In general terms: Loss of bound radioactivity is the signal in a displacement assay; it reports binding, not function.

Another assay concerns the target human D3R (Homo sapiens (Human), UniProt P35462). Put plainly: Radioligand competition binding, [3H]N-methylspiperone, HEK293 membranes expressing human D3R. Conditions: for D2/D3: ratio of Ki values; for Ki: read-out: D3R Ki ± SEM. How it is done: as §1, §2, §3
In another assay the target is human D4R (Homo sapiens (Human), UniProt P21917). Put plainly: Radioligand competition binding, [3H]N-methylspiperone, HEK293 membranes expressing human D4R. Conditions: Table 1A; for Ki: [3H]N-methylspiperone, read-out: D4R Ki ± SEM; for D4/D2 / D4/D3: ratio of Ki values. As to the method: Binding at dopamine D2-like receptors was determined using previously described methods. (Chen et al. “Tranylcypromine substituted cis-hydroxycyclobutylnaphthamides as potent and selective dopamine D(3) receptor antagonists.” J. Med. Chem. 2014, 57, 4962-4968) Membranes were prepared from HEK293 cells expressing human D2R, D3R or D4R, grown in a 50:50 mix of DMEM and Ham's F12 culture media, supplemented with 20 mM HEPES, 2 mM L-glutamine, 0.1 mM non-essential amino acids, 1× antibiotic/antimycotic, 10% heat-inactivated fetal bovine serum, and 200 μg/mL hygromycin (Life Technologies, Grand Island, N.Y.) and kept in an incubator at 37° C. and 5% CO2. Upon reaching 80-90% confluence, cells were harvested using pre-mixed Earle's Balanced Salt Solution (EBSS) with […] EDTA (Life Technologies) and centrifuged at 3000 rpm for 10 min at 21° C. The supernatant was removed and the pellet was resuspended in 10 mL hypotonic lysis buffer (5 mM MgCl2.6H2O, 5 mM Tris, pH 7.4 at 4° C.) and centrifuged at 20,000 rpm for 30 min at 4° C. The pellet was then resuspended in fresh EBSS buffer made from 8.7 g/L Earle's Balanced Salts without phenol red (US Biological, Salem, Mass.), 2.2 g/L sodium bicarbonate, pH to 7.4. A Bradford protein assay (Bio-Rad, Hercules, Calif.) was used to determine the protein concentration and membranes were diluted to 500 μg/mL and stored in a −80° C. freezer for later use.
human D4R, sequence (P21917 whole entry): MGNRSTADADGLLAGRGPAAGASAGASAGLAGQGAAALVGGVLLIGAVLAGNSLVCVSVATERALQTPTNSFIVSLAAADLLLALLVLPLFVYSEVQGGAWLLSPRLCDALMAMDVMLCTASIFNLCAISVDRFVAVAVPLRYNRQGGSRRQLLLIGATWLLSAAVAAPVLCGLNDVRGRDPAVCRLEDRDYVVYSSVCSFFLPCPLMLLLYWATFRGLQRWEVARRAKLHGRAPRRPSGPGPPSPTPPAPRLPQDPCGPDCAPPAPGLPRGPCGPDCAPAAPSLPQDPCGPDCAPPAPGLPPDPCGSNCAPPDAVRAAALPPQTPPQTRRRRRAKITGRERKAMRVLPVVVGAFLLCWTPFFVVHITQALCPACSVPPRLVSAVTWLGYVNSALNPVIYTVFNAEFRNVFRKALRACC
Radioligand competition binding experiments were conducted using thawed membranes. Test compounds were freshly dissolved in 30% DMSO and 70% H2O to a stock concentration of 100 μM. To assist the solubilization of free-base compounds, 10 μl of glacial acetic acid was added along with the DMSO. Each test compound was then diluted into 13 half-log serial dilutions using 30% DMSO vehicle; final test concentrations ranged from 10 μM to 10 pM. Previously frozen membranes were diluted in fresh EBSS to a 100 μg/mL (for hD2R or hD3R) or 200 μg/mL (hD4R) stock for binding. Radioligand competition experiments were conducted in glass tubes containing 300 μl fresh EBSS buffer with 0.2 mM sodium metabisulfite, 50 μl of diluted test compound, 100 μl of membranes (10 μg total protein for hD2R or hD3R, 20 μg total protein for hD4R), and 50 μl of [^3H]N-methylspiperone (0.4 nM final concentration; Perkin Elmer). Nonspecific binding was determined using 10 μM butaclamol (Sigma-Aldrich, St. Louis, Mo.) and total binding was determined with 30% DMSO vehicle. All compound dilutions were tested in triplicate and the reaction incubated for one hour at room temperature. The reaction was terminated by filtration through Whatman GF/B filters, presoaked for one hour in 0.5% polyethylenimine, using a Brandel R48 filtering manifold (Brandel Instruments, Gaithersburg, Md.). The filters were washed 3 times with 3 mL of ice cold EBSS buffer and transferred to scintillation vials. 3 mL CytoScint liquid scintillation cocktail (MP Biomedicals, Solon, Ohio) was added and vials were counted using a Perkin Elmer Tri-Carb 2910 TR liquid scintillation counter (Waltham, Mass.). IC50 values for each compound were determined from dose-response curves and Ki values were calculated using the Cheng-Prusoff equation; these analyses were performed using GraphPad Prism version 5.00 for Windows (GraphPad Software, San Diego, Calif.). Reported Ki values were determined from least three independent experiments.

Setting [1] is: Table 1A, HEK 293 cells transfected with hD2LR, [3H]N-methylspiperone.
Where [2] appears, read: Table 1A, HEK 293 cells transfected with hD3R, [3H]N-methylspiperone.

SMILES strings stand for the structures. Where two headings read alike, the source gives them in different places. Bounds are passed on as bounds.

human D3R, sequence (P35462 whole entry): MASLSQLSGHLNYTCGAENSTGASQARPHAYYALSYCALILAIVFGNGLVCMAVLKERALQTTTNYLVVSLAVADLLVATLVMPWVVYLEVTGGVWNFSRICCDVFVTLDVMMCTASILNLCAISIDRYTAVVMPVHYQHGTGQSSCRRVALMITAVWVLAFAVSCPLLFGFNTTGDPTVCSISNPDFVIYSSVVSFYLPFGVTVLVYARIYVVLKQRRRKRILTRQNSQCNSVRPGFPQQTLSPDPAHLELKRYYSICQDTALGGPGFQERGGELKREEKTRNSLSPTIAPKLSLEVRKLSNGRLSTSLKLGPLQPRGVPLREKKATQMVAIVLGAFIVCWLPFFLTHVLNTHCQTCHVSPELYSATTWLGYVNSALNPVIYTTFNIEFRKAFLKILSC

Take `CCc1cc(Cl)c(OC)c(N2CCN(C[C@H](F)CCNC(=O)c3cc4ccccc4[nH]3)CC2)c1` [(R)-C4a, (R)-N-(4-(4-(3-chloro-5-ethyl-2-methoxyphenyl)piperazin-1-yl)-3-fluorobutyl)-1H-indole-2-carboxamide]: the Ki (as a rule, a measure of affinity in units of concentration, obtained from inhibition or displacement) at human D2R (Table 1C) stood at 21.4 ± 1.5 µM. On human D3R, the “D3R selectivity over D2R (D2R/D3R)” value was determined as 1650 fold. Besides, at human D3R (Table 1C), the D2/D3 worked out at 1646 and the Ki was determined as 0.013 ± 0.00294 µM.
For `CCc1cccc(N2CCN(C[C@H](F)CCNC(=O)c3cc4ccccc4[nH]3)CC2)c1Cl` [(R)-C5a, (R)-N-(4-(4-(2-chloro-3-ethylphenyl)piperazin-1-yl)-3-fluorobutyl)-1H-indole-2-carboxamide], in that order: 0.0802 ± 0.0138 µM, 215 fold, 215 and 0.000373 µM.
In the same order, the values of `CCc1cc(Cl)c(OC)c(N2CCN(C[C@@H](F)CCNC(=O)c3cc4ccccc4[nH]3)CC2)c1` [(S)-C4a, (S)-N-(4-(4-(3-chloro-5-ethyl-2-methoxyphenyl)piperazin-1-yl)-3-fluorobutyl)-1H-indole-2-carboxamidec] are 18.9 ± 2.72 µM, 535 fold, 535 and 0.0353 µM.
In the same order, the values of `CCc1cccc(N2CCN(C[C@@H](F)CCNC(=O)c3cc4ccccc4[nH]3)CC2)c1Cl` [(S)-C5a, (S)-N-(4-(4-(2-chloro-3-ethylphenyl)piperazin-1-yl)-3-fluorobutyl)-1H-indole-2-carboxamide] are 0.891 ± 0.305 µM, greater than 1000 fold, 1060 and 0.00084 µM.
As for `CCc1cccc(N2CCN(CCCCNC(=O)c3cn4ccccc4n3)CC2)c1Cl` [Compound 22, N-(4-(4-(2-chloro-3-ethylphenyl)piperazin-1-yl)butyl)imidazo[1,2-a]pyridine-2-carboxamide], the Ki on human D2R (setting [1]) was 0.00564 ± 0.00098 µM. Moreover, on human D4R, the Ki came to 0.819 ± 0.175 µM, the D4/D2 stood at 145.2 and the D4/D3 is listed as 2482. The inhibitory constant (Ki) on human D3R (setting [2]) is 0.00033 ± 8.5e-05 µM. For the same compound, the D2/D3 on human D3R (Table 1A) is given as 17.1.
For the compound `CCc1cccc(N2CCN(CC(O)CCNC(=O)c3cn4ccccc4n3)CC2)c1Cl` (stereo not shown) [Compound 23, N-(4-(4-(2-Chloro-3-ethylphenyl)piperazin-1-yl)-3-hydroxybutyl)imidazo[1,2-a]pyridine-2-carboxamide], the Ki on human D2R (setting [1]) amounted to 0.193 ± 0.0405 µM. Also, at human D4R, the Ki worked out at 11.3 µM, the D4/D2 is recorded as 58.5 and the D4/D3 worked out at 2671. Besides, the Ki on human D3R (setting [2]) is 0.00423 ± 0.00084 µM. Besides, the D2/D3 at human D3R (Table 1A) is 45.6.
As to `CCc1cccc(N2CCN(CCCCNC(=O)c3c(C)nc4sccn34)CC2)c1Cl` [Compound 24, N-(4-(4-(2-chloro-3-ethylphenyl)piperazin-1-yl)butyl)-6-methylimidazo[2,1-b]thiazole-5-carboxamide], the Ki amounted to 0.00465 ± 0.00124 µM on human D2R (setting [1]), 0.143 ± 0.00318 µM at human D4R and 0.00094 ± 0.00013 µM at human D3R (setting [2]). In addition, the D4/D2 on human D4R worked out at 30.8. The D4/D3 on human D4R was determined as 152. For the same compound, on human D3R (Table 1A), the D2/D3 is 4.9.
Consider `CCc1c[nH]c(C(=O)NCCCCN2CCN(c3cccc(CC)c3Cl)CC2)n1` [Compound 25, N-(4-(4-(2-Chloro-3-ethylphenyl)piperazin-1-yl)butyl)-4-ethyl-1H-imidazole-2-carboxamide], for which the Ki on human D2R (setting [1]) turned out to be 0.0125 ± 0.00107 µM. On human D4R, the Ki was 0.5 ± 0.0309 µM, the D4/D2 came to 40.0 and the D4/D3 is 439. In addition, on human D3R (setting [2]), the Ki was 0.00114 ± 0.00017 µM. The D2/D3 at human D3R (Table 1A) is reported as 11.0.
Consider `CCc1cccc(N2CCN(CCCCNC(=O)c3nc(C)c[nH]3)CC2)c1Cl` [Compound 26, N-(4-(4-(2-Chloro-3-ethylphenyl)piperazin-1-yl)butyl)-4-methyl-1H-imidazole-2-carboxamide], for which, at human D2R (setting [1]), the Ki was 0.0122 ± 0.00258 µM. For the same compound, at human D4R, the Ki came to 0.529 ± 0.0423 µM, the D4/D2 stood at 43.4 and the D4/D3 is on record as 853. Besides, the Ki on human D3R (setting [2]) is 0.00062 ± 9.6e-05 µM. At human D3R (Table 1A), the D2/D3 was determined as 19.7.
For `CCc1cccc(N2CCN(CC(O)CCNC(=O)c3nc(C)c[nH]3)CC2)c1Cl` (stereo not shown) [Compound 27, N-(4-(4-(2-Chloro-3-ethylphenyl)piperazin-1-yl)-3-hydroxybutyl)-4-methyl-1H-imidazole-2-carboxamide], the Ki at human D2R (setting [1]) came out at 0.15 ± 0.0131 µM. Besides, at human D4R, the Ki is 1.96 ± 0.344 µM, the D4/D2 came to 13.1 and the D4/D3 is on record as 175. Besides, the Ki at human D3R (setting [2]) amounted to 0.0112 ± 0.00266 µM. Moreover, on human D3R (Table 1A), the D2/D3 is 13.4.
Turning to `CCc1cc(Cl)c(OC)c(N2CCN(CC(O)CCNC(=O)c3ccc4c(c3)OCO4)CC2)c1` (stereo not shown) [Compound 113a, N-(4-(4-(3-Chloro-5-ethyl-2-methoxyphenyl)piperazin-1-yl)-3-hydroxybutyl)benzo[d][1,3]dioxole-5-carboxamide], the Ki at human D2R (Table 1C) was 0.364 ± 0.101 µM. Further, on human D3R (Table 1C), the D2/D3 was 15 and the Ki was found to be 0.0245 ± 0.00444 µM.
In the case of `CCc1cccc(N2CCN(CC(O)CCNC(=O)c3ccc4c(c3)OCO4)CC2)c1Cl` (stereo not shown) [Compound 113b, N-(4-(4-(2-Chloro-3-ethylphenyl)piperazin-1-yl)-3-hydroxybutyl)benzo[d 1,3]dioxole-5-carboxamide], the Ki was determined as 0.424 ± 0.0799 µM at human D2R (Table 1C) and 0.00302 ± 0.000742 µM on human D3R (Table 1C). For the same compound, the D2/D3 on human D3R (Table 1C) is on record as 140.
Turning to `CCc1cc2c(cc1N1CCN(CC(O)CCNC(=O)c3cc4ccccc4o3)CC1)OCO2` (stereo not shown) [Compound 122, N-(4-(4-(6-Ethylbenzo[d][1,3]dioxol-5-yl)piperazin-1-yl)-3-hydroxybutyl)benzofuran-2-carboxamide], the Ki at human D2R (Table 1C) was found to be 1.44 ± 0.0488 µM. Moreover, on human D3R (Table 1C), the D2/D3 was 61 and the Ki was 0.0236 ± 0.00735 µM.
